{"source": "patent US20090069300A1", "about": "“ISOQUINOLINYL AND ISOINDOLINYL DERIVATIVES AS HISTAMINE-3 ANTAGONISTS” (Wyeth, priority 2007, published 2009)", "note": "Structures can show the parent of a compound that is named as a salt."}
{"biological_target": "T1, Human Histamine H3 Receptor (Homo sapiens, UniProt Q9Y5N1)", "T1 construct": "expressed in transfected cells; host or cells: HEK293T (stably transfected; membranes prepared from the cells)", "T1 sequence (Q9Y5N1 whole entry)": "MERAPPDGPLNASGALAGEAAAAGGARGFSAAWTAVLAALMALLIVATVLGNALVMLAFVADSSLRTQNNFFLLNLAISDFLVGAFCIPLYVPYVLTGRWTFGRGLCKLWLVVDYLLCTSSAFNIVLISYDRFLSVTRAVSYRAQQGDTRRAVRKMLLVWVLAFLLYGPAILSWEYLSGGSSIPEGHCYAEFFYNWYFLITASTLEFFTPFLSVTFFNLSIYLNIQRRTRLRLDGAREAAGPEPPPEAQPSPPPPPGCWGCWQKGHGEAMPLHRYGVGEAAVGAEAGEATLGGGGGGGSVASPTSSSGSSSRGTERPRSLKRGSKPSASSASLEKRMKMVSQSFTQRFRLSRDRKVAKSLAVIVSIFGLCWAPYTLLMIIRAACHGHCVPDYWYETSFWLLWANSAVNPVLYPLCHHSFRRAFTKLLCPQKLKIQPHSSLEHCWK", "assay": "Methyl histamine binding in human histamine H3 receptor cell line", "settings": "membranes of stably transfected HEK293T cells; methyl histamine radioligand 1 nM; one hour incubation at 30° C.; Ki from IC50 by Cheng-Prusoff; read-out: H3 Binding Ki", "procedure": "(§1) Evaluation of Methyl Histamine Binding in Human Histamine H3 Receptor Cell Line\n(§2) The affinity of test compounds for the histamine 3 (H3) receptor is evaluated in the following manner. […] Cells are scraped from the plate, transferred to centrifuge tubes, washed one time in PBS by centrifugation in a Sorvall RT7 Plus centrifuge (2000 rpm 10 minutes, 4° C.). The resulting pellets are stored at −80° C. until ready for use. Cells are re-suspended in buffer (50 mM Tris pH=7.5) and placed in a Dounce homogenizer, douncing ten times to homogenize cells. The homogenate is spun down by centrifugation (Sorvall RT7 Plus, 1800 rpm 10 minutes, 4° C.). The supernatant is placed in a Corex tube and spun down by centrifugation (Sorvall RC 5c Plus, 17,000 rpm 20 minutes, 4° C.). The pellet is resuspended in buffer (50 mM Tris, pH 7.5). Protein concentration (ug/ul) is determined using the Micro-BCA Protein Determination. The binding assay is set up in a 96 well microtiter plate in a total volume of 250 uL. Non-specific binding is determined in the presence of 10 uM clobenpropit. The final radioligand concentration is 1 nM. The test compound is serially diluted using the Beckman Biomek2000 to a final approximate range of 100 uM to 100 pM. Membranes are suspended in buffer, homogenized in 2 bursts of ten seconds using a Vitris mechanical homogenizer set at power setting 5. Ten μg of membranes are added to each well. Following a one hour incubation at 30° C., the reaction is terminated by the addition of ice cold buffer and rapid filtration with a Packard Filtermate Harvester through a GF/B filter pre-soaked with 1% PEI for one hour. The plate is dried for one hour at 37° C. and 60 μL Microscint Scintillant is added to each well. The CPM per well is measured on a Packard Top Count NXT. Ki values are determined in nM. […] CPM values are expressed as % specific binding and plotted vs compound concentration. A curve is fitted using a four-parameter logistic fit and the IC50 value is determined. The Ki is calculated from this using the Cheng-Prusoff equation: […]=IC50/1+(L/Kd) where L=concentration of free radioligand used in the assay, and Kd is the dissociation constant of the radioligand for the receptor. L is determined for each experiment by counting an aliquot of the diluted radioligand (corresponding to that added to each well) and the Kd has previously been determined under identical conditions for this cell line/radioligand.", "units": {"Ki": "nM"}}
{"compound": "COC(=O)c1ccc(-c2ccc3c(c2)CCN(CCN2CCC[C@H]2C)C3=O)cc1", "note": "[Example 25, methyl 4-(2-{2-[(2R)-2-methylpyrrolidin-1-yl]ethyl}-1-oxo-1,2,3,4-tetrahydroiso-quinolin-6-yl)benzoate]", "Ki": "< 10"}
{"biological_target": "T1, Human Histamine H3 Receptor", "assay": "Methyl histamine binding in human histamine H3 receptor cell line", "settings": "read-out: H3 Binding Ki", "procedure": "as §1, §2", "units": {"Ki": "nM"}}
{"compound": "O=C1c2ccc(-c3ccc(F)cc3)cc2CCN1CCN1CCCC1", "note": "[Example 9, 6-(4-fluorophenyl)-2-(2-pyrrolidin-1-ylethyl)-3,4-dihydroiso-quinolin-1(2H)-one Hydrochloride]", "Ki": "10.1 to 25"}
{"compound": "O=C1c2ccc(-c3cc(F)cc(F)c3)cc2CCN1CCN1CCCC1", "note": "[Example 10, 6-(3,5-difluorophenyl)-2-(2-pyrrolidin-1-ylethyl)-3,4-dihydroisoquinolin-1(2H)-one]", "Ki": "< 10"}
{"compound": "O=C1c2ccc(-c3ccc(F)cc3F)cc2CCN1CCN1CCCC1", "note": "[Example 11, 6-(2,4-difluorophenyl)-2-(2-pyrrolidin-1-ylethyl)-3,4-dihydroisoquinolin-1(2H)-one]", "Ki": "< 10"}
{"compound": "O=C1c2ccc(-c3ccccc3F)cc2CCN1CCN1CCCC1", "note": "[Example 12, 6-(2-fluorophenyl)-2-(2-pyrrolidin-1-ylethyl)-3,4-dihydroisoquinolin-1(2H)-one]", "Ki": "10.1 to 25"}
{"compound": "O=C1c2ccc(-c3cccc(OC(F)(F)F)c3)cc2CCN1CCN1CCCC1", "note": "[Example 13, 2-(2-pyrrolidin-1-ylethyl)-6-[3-(trifluoromethoxy)phenyl]-3,4-dihydroisoquinolin-1(2H)-one]", "Ki": "25.1 to 50"}
{"compound": "O=C1c2ccc(-c3ccc(OC(F)(F)F)cc3)cc2CCN1CCN1CCCC1", "note": "[Example 14, 2-(2-pyrrolidin-1-ylethyl)-6-[4-(trifluoromethoxy)phenyl]-3,4-dihydroisoquinolin-1(2H)-one]", "Ki": "10.1 to 25"}
{"compound": "N#Cc1cccc(-c2ccc3c(c2)CCN(CCN2CCCC2)C3=O)c1", "note": "[Example 15, 3-[1-oxo-2-(2-pyrrolidin-1-ylethyl)-1,2,3,4-tetrahydroisoquinolin-6-yl]benzonitrile]", "Ki": "< 10"}
{"compound": "O=C1c2ccc(-c3ccccc3)cc2CCN1CCN1CCCC1", "note": "[Example 16, 6-phenyl-2-(2-pyrrolidin-1-ylethyl)-3,4-dihydroisoquinolin-1(2H)-one]", "Ki": "10.1 to 25"}
{"compound": "O=C1c2ccc(-c3ccc(F)c(F)c3)cc2CCN1CCN1CCCC1", "note": "[Example 17, 6-(3,4-difluorophenyl)-2-(2-pyrrolidin-1-ylethyl)-3,4-dihydroisoquinolin-1(2H)-one]", "Ki": "< 10"}
{"compound": "O=C1c2ccc(-c3cccc(F)c3)cc2CCN1CCN1CCCC1", "note": "[Example 18, 6-(3-fluorophenyl)-2-(2-pyrrolidin-1-ylethyl)-3,4-dihydroisoquinolin-1(2H)-one]", "Ki": "10.1 to 25"}
{"compound": "N#Cc1ccc(-c2ccc3c(c2)CCN(CCN2CCCC2)C3=O)cc1", "note": "[Example 19, 4-[1-oxo-2-(2-pyrrolidin-1-ylethyl)-1,2,3,4-tetrahydroisoquinolin-6-yl]benzonitrile]", "Ki": "< 10"}
{"compound": "O=C1c2ccc(-c3cccc(C(F)(F)F)c3)cc2CCN1CCN1CCCC1", "note": "[Example 20, 2-(2-pyrrolidin-1-ylethyl)-6-[3-(trifluoromethyl)phenyl]-3,4-dihydroisoquinolin-1(2H)-one]", "Ki": "< 10"}
{"compound": "O=C1c2ccc(-c3ccc4c(c3)OCO4)cc2CCN1CCN1CCCC1", "note": "[Example 21, 6-(1,3-benzodioxol-5-yl)-2-(2-pyrrolidin-1-ylethyl)-3,4-dihydroisoquinolin-1(2H)-one]", "Ki": "10.1 to 25"}
{"compound": "O=C1c2ccc(-c3ccc(C(F)(F)F)cc3)cc2CCN1CCN1CCCC1", "note": "[Example 22, 2-(2-pyrrolidin-1-ylethyl)-6-[4-(trifluoromethyl)phenyl]-3,4-dihydroisoquinolin-1(2H)-one]", "Ki": "< 10"}
{"compound": "COc1ccc(-c2ccc3c(c2)CCN(CCN2CCCC2)C3=O)cc1", "note": "[Example 23, 6-(4-methoxyphenyl)-2-(2-pyrrolidin-1-ylethyl)-3,4-dihydroisoquinolin-1(2H)-one]", "Ki": "< 10"}
{"compound": "C[C@@H]1CCCN1CCN1CCc2ccc(-c3ccc(C#N)cc3)cc2C1=O", "note": "[Example 26, 4-(2-{2-[(2R)-2-methylpyrrolidin-1-yl]ethyl}-1-oxo-1,2,3,4-tetrahydroisoquinolin-7-yl)benzonitrile]", "Ki": "< 10"}
{"compound": "C[C@@H]1CCCN1CCN1CCc2c(cccc2-c2cccc(C#N)c2)C1=O", "note": "[Example 27, 3-(2-{2-[(2R)-2-methylpyrrolidin-1-yl]ethyl}-1-oxo-1,2,3,4-tetrahydroisoquinolin-5-yl)benzonitrile]", "Ki": "50.1 to 100"}
{"compound": "C[C@@H]1CCCN1CCN1CCc2c(cccc2-c2ccc(C#N)cc2)C1=O", "note": "[Example 28, 4-(2-{2-[(2R)-2-methylpyrrolidin-1-yl]ethyl}-1-oxo-1,2,3,4-tetrahydroisoquinolin-5-yl)benzonitrile]", "Ki": "10.1 to 25"}
{"compound": "N#Cc1ccc(-c2ccc3c(c2)CCN(CCCN2CCCC2)C3=O)cc1", "note": "[Example 32, 4-[1-oxo-2-(3-pyrrolidin-1-ylpropyl)-1,2,3,4-tetrahydroisoquinolin-6-yl]benzonitrile]", "Ki": "< 10"}
{"compound": "N#Cc1cccc(-c2ccc3c(c2)CCN(CCCN2CCCC2)C3=O)c1", "note": "[Example 33, 3-[1-oxo-2-(3-pyrrolidin-1-ylpropyl)-1,2,3,4-tetrahydroisoquinolin-6-yl]benzonitrile]", "Ki": "25.1 to 50"}
{"compound": "O=C1c2ccc(-c3ccncc3)cc2CCN1CCN1CCCC1", "note": "[Example 34, 6-pyridin-4-yl-2-(2-pyrrolidin-1-ylethyl)-3,4-dihydroisoquinolin-1(2)-one Hydrochloride]", "Ki": "< 10"}
{"compound": "N#Cc1ccc2c(ccn2-c2ccc3c(c2)CCN(CCN2CCCC2)C3=O)c1", "note": "[Example 35, 1-[1-oxo-2-(2-pyrrolidin-1-ylethyl)-1,2,3,4-tetrahydroisoquinolin-6-yl]-1H-indole-5-carbonitrile Hydrochloride]", "Ki": "< 10"}
{"compound": "O=C1c2ccc(-n3cccn3)cc2CCN1CCN1CCCC1", "note": "[Example 37, 6-(1H-pyrazol-1-yl)-2-(2-(pyrrolidin-1-yl)ethyl)-3,4-dihydroisoquinolin-1(2H)-one hydrochloride]", "Ki": "10.1 to 25"}
{"compound": "O=C(c1ccc2c(c1)CCN(CCN1CCCC1)C2=O)N1CCCC1", "note": "[Example 38, 6-(pyrrolidin-1-ylcarbonyl)-2-(2-pyrrolidin-1-ylethyl)-3,4-dihydroisoquinolin-1(2H)-one hydrochloride]", "Ki": "10.1 to 25"}
{"compound": "C[C@H]1CCCN1CCN1CCc2cc(-c3ccc(F)cc3)ccc2C1=O", "note": "[Example 39, 6-(4-fluorophenyl)-2-{2-[(2S)-2-methylpyrrolidin-1-yl]ethyl}-3,4-dihydroiso-quinolin-1(2H)-one hydrochloride]", "Ki": "10.1 to 25"}
{"compound": "C[C@@H]1CCCN1CCN1CCc2cc(-c3ccc(F)cc3)ccc2C1=O", "note": "[Example 40, 6-(4-fluorophenyl)-2-{2-[(2R)-2-methylpyrrolidin-1-yl]ethyl}-3,4-dihydroisoquinolin-1(2H)-one]", "Ki": "< 10"}
{"compound": "O=C1c2ccc(-c3ccc(F)cc3)cc2CCN1CCN1CCCCC1", "note": "[Example 43, 6-(4-fluorophenyl)-2-(2-piperidin-1-ylethyl)-3,4-dihydroiso-quinolin-1(2H)-one hydrochloride]", "Ki": "< 10"}
{"compound": "O=C1c2ccc(-c3ccc(F)cc3)cc2CCN1CCN1CCCCCC1", "note": "[Example 44, 2-(2-azepan-1-ylethyl)-6-(4-fluorophenyl)-3,4-dihydroisoquinolin-1(2H)-one hydrochloride]", "Ki": "< 10"}
{"compound": "N#Cc1ccc(-c2ccc3c(c2)CCN(CCCN2CCCCC2)C3=O)cc1", "note": "[Example 45, 4-[1-oxo-2-(3-piperidin-1-ylpropyl)-1,2,3,4-tetrahydroisoquinolin-6-yl]benzonitrile hydrochloride]", "Ki": "10.1 to 25"}
{"compound": "N#Cc1ccc(Oc2ccc3c(c2)CCN(CCN2CCCC2)C3=O)nc1", "note": "[Example 47, 6-{[1-oxo-2-(2-pyrrolidin-1-ylethyl)-1,2,3,4-tetrahydroisoquinolin-6-yl]oxy}nicotinonitrile]", "Ki": "10.1 to 25"}
{"compound": "C[C@@H]1CCCN1CCN1CCc2cc(Oc3ccc(C#N)cn3)ccc2C1=O", "note": "[Example 48, 6-[(2-{2-[(2R)-2-methylpyrrolidin-1-yl]ethyl}-1-oxo-1,2,3,4-tetrahydroisoquinolin-6-yl)oxy]nicotinonitrile]", "Ki": "< 10"}
{"compound": "C[C@@H]1CCCN1CCN1CCc2cc(Oc3ccc(C#N)cc3)ccc2C1=O", "note": "[Example 49, 4-[(2-{2-[(2R)-2-methylpyrrolidin-1-yl]ethyl}-1-oxo-1,2,3,4-tetrahydroisoquinolin-6-yl)oxy]benzonitrile]", "Ki": "< 10"}
{"compound": "N#Cc1ccc(Oc2ccc3c(c2)CCN(CCN2CCCC2)C3=O)cc1", "note": "[Example 50, 4-{[1-oxo-2-(2-pyrrolidin-1-ylethyl)-1,2,3,4-tetrahydroisoquinolin-6-yl]oxy}benzonitrile]", "Ki": "< 10"}
